Patent US20150183737A1, “COMPOSITIONS AND METHODS FOR SUBSTRATE-SELECTIVE INHIBITION OF ENDOCANNABINOID OXYGENATION” (Vanderbilt University, priority 2012, published 2015)
pIC50: −log10 of the molar value. “Also recorded” adds a separate entry of the source. Read-outs that look alike come from different tables or passages of the source. One block for each compound: values may come before it.

Key:
wild type mCOX-2 = molecular target: T1, wild type mCOX-2 (Mus musculus, UniProt Q05769); assay: biochemical
T1 sequence (Q05769 18-604): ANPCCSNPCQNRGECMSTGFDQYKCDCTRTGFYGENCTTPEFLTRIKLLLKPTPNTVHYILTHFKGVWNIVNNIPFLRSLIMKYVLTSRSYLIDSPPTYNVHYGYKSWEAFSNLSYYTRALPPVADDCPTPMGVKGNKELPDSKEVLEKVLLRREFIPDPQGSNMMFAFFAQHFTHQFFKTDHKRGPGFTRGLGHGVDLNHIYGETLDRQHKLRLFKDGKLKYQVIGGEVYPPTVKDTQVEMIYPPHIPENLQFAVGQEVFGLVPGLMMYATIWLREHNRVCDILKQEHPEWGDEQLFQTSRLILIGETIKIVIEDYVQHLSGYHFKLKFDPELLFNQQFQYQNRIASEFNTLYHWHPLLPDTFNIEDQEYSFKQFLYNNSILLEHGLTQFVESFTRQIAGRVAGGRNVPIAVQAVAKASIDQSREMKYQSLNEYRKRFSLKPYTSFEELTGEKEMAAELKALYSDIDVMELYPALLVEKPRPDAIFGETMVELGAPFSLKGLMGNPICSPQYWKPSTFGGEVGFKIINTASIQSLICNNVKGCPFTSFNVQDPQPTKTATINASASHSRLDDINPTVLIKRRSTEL

mCOX-2 = molecular target: T2, mCOX-2 (Mus musculus, UniProt Q05769); assay: Inhibition of COX-2-mediated oxygenation of arachidonic acid and 2-AG, purified enzyme, 15 min preincubation; format: biochemical, murine
T2 construct: made in house; host or cells: insect cells
T2 sequence (Q05769 18-604): T1 sequence (Q05769 18-604)
Description: Various concentrations of inhibitor (or DMSO) were incubated with mCOX-2 (200 nM) for 5-15 minutes in 100 mM Tris-HCl with 0.5 mM phenol, pH 8.0. For mutant mCOX-2 experiments, the enzyme concentration was adjusted such that the turnover was approximately equal to wild type enzyme. The preincubation time was determined on the basis of previous reports regarding the time required to achieve maximal inhibition, and preincubation was performed at 25° C. except for the final 3 minutes, which took place at 37° C. […] After the preincubation of enzyme and inhibitor, arachidonic acid or 2-AG was added for 30 seconds at 37° C. The reaction was quenched with ice-cold ethyl acetate containing 0.5% (v/v) acetic acid and 1 μM PGE2-d4 and PGE2-G-d5. The solution was then vigorously mixed and cooled on ice. The organic layer was separated and evaporated to near-dryness under nitrogen. […] Peak areas for analytes were normalized to the appropriate internal standard to determine the amount of product formation, and the amount of inhibition was determined by normalization to a DMSO control.

[1] = molecular target: T3, COX-2 in RAW 264.7 macrophages (Mus musculus, UniProt Q05769); assay: RAW cells assay: oxygenation of 2-AG and AA; format: cell-based
T3 construct: endogenous in cells; host or cells: RAW 264.7 macrophages stimulated with LPS (and GM-CSF / interferon γ where described)
T3 sequence (Q05769 18-604): T1 sequence (Q05769 18-604)
Description: Two hours after stimulation, varying doses of inhibitor were added to the cell media and 6 hr after stimulation the media were collected and analyzed by LC-MS-MS for prostaglandin levels.
The cells were then stimulated overnight with 20 ng/ml of granulocyte-macrophage colony-stimulating factor. The media was replaced in the morning with DMEM with GLUTAMAX® and the cells were stimulated with 100 ng/ml lipopolysaccharide and 20 units/ml interferon γ. Two hours after stimulation varying doses of inhibitor were added to the cell media and 6 hours after stimulation the media was collected and extracted in acidified ethyl acetate spiked with deuterated internal standards. The organic layer was dried down under a stream of nitrogen gas and reconstituted in 1:1 water:methanol and analyzed by LC-MS/MS for prostaglandin levels using the same instrumentation, column, solvents and conditions as described for the in vitro assay above.

purified murine COX-2 = molecular target: T4, purified murine COX-2 (Mus musculus, UniProt Q05769); assay: Inhibition of mCOX-2 dependent oxygenation of 2-AG and AA by profens in vitro; format: biochemical; design: made in house; host or cells: insect cells; conditions: achiral profens; for inhibition at 10 µM: at 10 μM inhibitor
T4 sequence (Q05769 18-604): T1 sequence (Q05769 18-604)
Description: Desired concentrations of inhibitor in DMSO or blank (DMSO) were incubated with mCOX-2 (40 nM) for 3 minutes in 100 mM Tris-HCl with 0.5 mM phenol, pH 8.0 at 37° C. After pre-incubation of enzyme and inhibitor, 5 μM of AA or 2-AG was added at 37° C. Thirty seconds later, the reaction was quenched with 200 μL of ice-cold ethyl acetate containing 0.5% acetic acid (v/v) and 1 μM PGE2-d4 and PGE2-G-d5. The solution was then vortexed and the aqueous layer frozen. The organic layer was removed and evaporated to near-dryness under nitrogen. The samples were reconstituted in 1:1 MeOH:H2O and chromatographed using a LUNA® C18(2) column (50 2 mm, 3 μm; Phenomenex, Torrance, Calif., United States of America). […] Analyte peak areas were normalized to the appropriate internal standard to determine the amount of product formation, and inhibition was determined by normalization to a DMSO control.

COX-2 = molecular target: T5, COX-2 (Mus musculus, UniProt Q05769); assay: Inhibition of COX-2 oxygenation by acetaminophen and its metabolites; format: biochemical; conditions: for Inhibition of AA oxygenation: up to 1 mM
T5 sequence (Q05769 18-604): T1 sequence (Q05769 18-604)

[2] = test system: brain eCB, AA and PG levels; assay: Brain eCB, NAE, MAG, AA and PG levels after i.p. injection; format: in vivo, mice; conditions: for Brain AA levels / Brain PG levels: 10 mg/kg i.p. (Compound A: any dose tested); for Brain AEA levels: 10 mg/kg i.p.
Description: 5-7 week old male ICR mice were used for all experiments with the exception of knockout animals (Harlan, Indianapolis, Ind., United States of America). Mice were housed 5 per […]. All behavioral tests were conducted during the light cycle between 0900 and 1700. KO and WT littermate controls for FAAH^(−/−) and COX-2^(−/−) mice were derived from heterozygote breeding pairs, bred and genotyped as described in Uddin et al., 2011. CB1^(−/−) mice were bred from homozygote breeding pairs and genotyped as described in Pan et al., 2008. Mice were group-housed on a 12:12 light-dark cycle (lights on at 06:00), with food and water available ad libitum. All animal studies were approved by the Vanderbilt Institutional Animal Care and Use Committee and conducted in accordance with the Guide for the Care and Use of Laboratory Animals of the United States National Institutes of Health.
(§1) Mice were sacrificed by cervical dislocation and decapitation. The brain, lungs, liver, stomach, small intestines, and kidneys were then rapidly removed and frozen on a metal block in dry ice. The tissue was then placed in a tube and stored at −80° C. until extraction, usually one day after harvesting. For PG and eCB analysis, lipid extraction from tissue was carried out as described in Patel et al., 2009.
(§2) Analytes were quantified using LC-MS/MS on a Quantum triple-quadrupole mass spectrometer in positive-ion mode using selected reaction monitoring. Detection of eicosanoids was performed as described in Kingsley & Marnett, 2007. For fatty acid analysis the mobile phases used were 80 μM AgOAc with 0.1% (v/v) acetic acid in H2O (solvent A) and 120 μM AgOAc with 0.1% (v/v) acetic acid in MeOH (solvent B). The analytes were eluted using a gradient from 20% A to 99% B over 5 minutes. The transitions used were m/z 300→282 for PEA, m/z 328→310 for SEA, m/z 434→416 for OEA, m/z 456→438 for AEA, m/z 464→446 for AEA-d8, m/z 331→257 for 2-PG, m/z 359→285 for 2-SG, m/z 463→389 for 2-OG, m/z 485→411 for 2-AG, m/z 493→419 for 2-AG-d8, m/z 519→409 for AA, and m/z 527→417 for AA-d8. Peak areas for the analytes were normalized to the appropriate internal standard and then normalized to tissue mass for in vivo samples.

[3] = test system: peripheral tissue eCB, NAE, MAG and PG levels; assay: Peripheral tissue NAE, MAG and PG levels after i.p. injection; format: in vivo, mice; conditions: stomach, heart, kidney, lung, intestine
Description: as §1
as §2, with “samples. […]” for “samples.”

ICR mice = assay: Novel open field test; format: in vivo; conditions: 10 mg/kg
Description: Animals were tested for open-field activity in a novel environment one hour after i.p. injection of compound as described in Sumislawski et al., 2011. Briefly, one-hour sessions were performed using automated experimental chambers (27.9 27.9 cm; MEDOFA-510; MED Associates, Ga., Vermont, United States of America) under constant illumination within a sound-attenuated room. Analysis of open field activity was performed using Activity Monitor v5.10 (MED Associates).

[4] = 2-AG IC50, 2-AG oxygenation by COX-2
[5] = AA IC50, AA oxygenation by COX-2
[6] = read-out: IC50, COX-2 oxygenation of 2-AG, 50 μM 2-AG, 15 min preincubation, LC-MS/MS

- pIC50 (wild type mCOX-2; [4]): 6.63
- pIC50 (wild type mCOX-2; [5]): 6.58
Compound: COc1ccc2c(c1)c(CC(=O)NCCO)c(C)n2C(=O)c1ccc(Cl)cc1 [C]

- inhibition at 25 µM ([1]; RAW264.7, at 25 μM compound): 55%
- pIC50 ([1]; conversion of 2-AG to PGE2-G/PGD2-G): 4.99
- inhibition at 10 µM (purified murine COX-2; AA 5 μM, read-out: AA % Inhibition): 0%
- pIC50 (purified murine COX-2; murine COX-2 40 nM, 3 min preincubation, 2-AG 5 μM, 37° C., 30 s, mean ± SD, read-out: 2-AG IC50): 5.64
- inhibition at 10 µM (purified murine COX-2; read-out: Maximum inhibition of 2-AG oxygenation, 2-AG 5 μM): 87%
Compound: O=C(O)C1(c2ccc(-c3ccccc3)c(F)c2)CC1 [Compound 5a, 1-(2-fluoro-[1,1′-biphenyl]-4-yl)cyclopropanecarboxylic acid]

- pIC50 (wild type mCOX-2; [4]): 6.23
- pIC50 (wild type mCOX-2; [5]): 4.64
Compound: CCN(CC)C(=O)Cc1c(C)n(C(=O)c2ccc(Cl)cc2)c2ccc(OC)cc12 [E]

- pIC50 (wild type mCOX-2; [4]): 6.23
- pIC50 (wild type mCOX-2; [5]): 6.21
Compound: COc1ccc2c(c1)c(CC(N)=O)c(C)n2C(=O)c1ccc(Cl)cc1 [B]

- pIC50 (wild type mCOX-2; [4]): 6.37
- pIC50 (wild type mCOX-2; [5]): 4.72
Compound: COc1ccc2c(c1)c(CC(=O)N(C)C)c(C)n2C(=O)c1ccc(Cl)cc1 [D]

- pIC50 (mCOX-2; read-out: IC50, COX-2 oxygenation of 2-AG): 7.07
- pIC50 (mCOX-2; read-out: IC50, COX-2 oxygenation of arachidonic acid): 6.28
Compound: CS(=O)(=O)c1ccc(C2=C(c3ccccc3)C(=O)OC2)cc1 [Rofecoxib]

- pIC50 (wild type mCOX-2; [4]): 6.19
- pIC50 (wild type mCOX-2; [5]): < 4.60
Compound: COc1ccc2c(c1)c(CC(=O)N1CCCCC1)c(C)n2C(=O)c1ccc(Cl)cc1 [F]

- pIC50 (wild type mCOX-2; [4]): 6.15
- pIC50 (wild type mCOX-2; [5]): < 4.60
Compound: COc1ccc2c(c1)c(CC(=O)N(C)CCc1ccccc1)c(C)n2C(=O)c1ccc(Cl)cc1 [G]

Second part, the compound before the results:

Compound: Cc1ccc(Nc2c(F)cccc2Cl)c(CC(=O)O)c1 [Lumiracoxib]
- IC50, COX-2 oxygenation of arachidonic acid (mCOX-2; 50 μM AA, 15 min preincubation, LC-MS/MS): No inhibition
- pIC50 (mCOX-2; [6]): 7.40

Compound: Nc1ccc(O)cc1 [4-aminophenol]
- pIC50 (COX-2): 4.15
- Inhibition of AA oxygenation (COX-2): No inhibition

Compound: COc1ccc2c(c1)c(CC(=O)O)cn2C(=O)c1ccc(Cl)cc1 [DM-INDO]
- pIC50 (mCOX-2; 50 μM AA, 15 min preincubation, LC-MS/MS, read-out: IC50, COX-2 oxygenation of arachidonic acid): < 4.60
- pIC50 (mCOX-2; [6]): 6.60

Compound: COc1ccc2c(c1)c(CC(=O)O)c(C)n2C(=O)c1ccc(Cl)cc1 [indomethacin, reference compound]
- Brain AA levels ([2]; 2 hours): significantly increased
- Brain PG levels ([2]; 2 hours): profoundly decreased
- Brain 2-AG levels ([2]; 10 mg/kg i.p. (highest dose), 2 hours, vs vehicle): significantly increased
- Brain AEA levels ([2]; 2 hours, vs vehicle): significantly increased
- Brain AEA levels (Example 8) ([2]; 2 hours after i.p administration, dose not stated): increased
- Brain or lung PG levels (Example 8) ([2]; dose not stated): profoundly decreased
- PG levels in peripheral tissues [3]: robustly decreased
- Center distance travelled and center time in the open-field arena (ICR mice): significantly increased
- Center distance travelled and center time in the open-field arena (ICR mice; listed as Indomethacin): increased

Compound: COc1ccc(-n2nc(C(F)(F)F)cc2-c2ccc(Cl)cc2)cc1 [SC-560, reference compound]
- Brain AA levels ([2]; 2 hours): significantly increased
- Brain PG levels ([2]; 2 hours): profoundly decreased
- Brain AEA levels ([2]; 2 hours, vs vehicle): significantly increased
- Center distance travelled and center time in the open-field arena (ICR mice): did not have any significant behavioral effect; also recorded: no significant behavioral effects

Compound: CS(=O)(=O)Nc1ccc([N+](=O)[O-])cc1OC1CCCCC1 [NS-398, reference compound]
- Brain AA levels ([2]; 2 hours): significantly increased
- Brain PG levels ([2]; 2 hours): profoundly decreased
- Brain AEA levels ([2]; 2 hours, vs vehicle): significantly increased
- Center distance travelled and center time in the open-field arena (ICR mice): significantly increased

Compound: CC(=O)Nc1ccc(O)cc1 [APAP, acetaminophen]
- Inhibition of AA oxygenation (COX-2): No inhibition
